Assay results from paper PMC10824666 (Nature Cancer, 2023).
Where two headings read alike, the source gives them in different places.

Legend:
Assay in all cases: biochemical
Design in all cases: Eurofins DiscoverX kinase panel, competitive binding assay at 1 uM, percent of DMSO control
Conditions in all cases: competitive binding, percent of DMSO control
IRAK 4 = target: T1, IRAK 4 (Homo sapiens, UniProt Q9NWZ3)
T1 construct: gene IRAK4
T1 sequence (Q9NWZ3 1-460): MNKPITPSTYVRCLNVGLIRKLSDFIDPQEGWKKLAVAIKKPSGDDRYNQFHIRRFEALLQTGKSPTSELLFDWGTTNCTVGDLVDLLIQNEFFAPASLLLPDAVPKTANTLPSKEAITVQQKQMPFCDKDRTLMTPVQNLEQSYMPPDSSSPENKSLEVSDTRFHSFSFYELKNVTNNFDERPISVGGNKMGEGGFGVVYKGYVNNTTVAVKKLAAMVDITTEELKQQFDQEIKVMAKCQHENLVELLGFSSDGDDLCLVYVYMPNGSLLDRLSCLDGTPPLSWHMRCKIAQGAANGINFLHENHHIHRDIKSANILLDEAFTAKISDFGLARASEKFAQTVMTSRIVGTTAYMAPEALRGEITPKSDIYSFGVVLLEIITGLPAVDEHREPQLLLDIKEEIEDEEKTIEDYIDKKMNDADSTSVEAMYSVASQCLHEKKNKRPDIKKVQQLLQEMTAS
Summary of the method: (§1)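 Single-point profiling at 1 µM compound in a competition-binding format against 96 kinases, read out as POC relative to control; n = 1.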

SRC = SRC (Homo sapiens, UniProt P12931)
Sequence of SRC (P12931 whole entry): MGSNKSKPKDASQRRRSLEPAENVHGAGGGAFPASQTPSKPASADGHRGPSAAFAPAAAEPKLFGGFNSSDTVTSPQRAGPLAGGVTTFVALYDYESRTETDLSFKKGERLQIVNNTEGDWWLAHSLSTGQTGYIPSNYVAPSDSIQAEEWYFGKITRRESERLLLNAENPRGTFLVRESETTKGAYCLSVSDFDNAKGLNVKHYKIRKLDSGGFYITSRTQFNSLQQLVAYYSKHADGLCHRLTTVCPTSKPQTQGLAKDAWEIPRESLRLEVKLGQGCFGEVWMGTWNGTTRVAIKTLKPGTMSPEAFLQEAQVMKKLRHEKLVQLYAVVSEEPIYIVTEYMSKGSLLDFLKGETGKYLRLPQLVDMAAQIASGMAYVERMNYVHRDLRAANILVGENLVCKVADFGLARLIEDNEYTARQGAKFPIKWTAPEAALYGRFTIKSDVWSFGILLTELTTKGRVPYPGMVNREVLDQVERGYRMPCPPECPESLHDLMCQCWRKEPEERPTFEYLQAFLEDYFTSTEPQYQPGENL
Summary of the method: as §1

ROCK 2 = target: T2, ROCK 2 (Homo sapiens, UniProt O75116)
T2 construct: gene ROCK2
T2 sequence (O75116 whole entry): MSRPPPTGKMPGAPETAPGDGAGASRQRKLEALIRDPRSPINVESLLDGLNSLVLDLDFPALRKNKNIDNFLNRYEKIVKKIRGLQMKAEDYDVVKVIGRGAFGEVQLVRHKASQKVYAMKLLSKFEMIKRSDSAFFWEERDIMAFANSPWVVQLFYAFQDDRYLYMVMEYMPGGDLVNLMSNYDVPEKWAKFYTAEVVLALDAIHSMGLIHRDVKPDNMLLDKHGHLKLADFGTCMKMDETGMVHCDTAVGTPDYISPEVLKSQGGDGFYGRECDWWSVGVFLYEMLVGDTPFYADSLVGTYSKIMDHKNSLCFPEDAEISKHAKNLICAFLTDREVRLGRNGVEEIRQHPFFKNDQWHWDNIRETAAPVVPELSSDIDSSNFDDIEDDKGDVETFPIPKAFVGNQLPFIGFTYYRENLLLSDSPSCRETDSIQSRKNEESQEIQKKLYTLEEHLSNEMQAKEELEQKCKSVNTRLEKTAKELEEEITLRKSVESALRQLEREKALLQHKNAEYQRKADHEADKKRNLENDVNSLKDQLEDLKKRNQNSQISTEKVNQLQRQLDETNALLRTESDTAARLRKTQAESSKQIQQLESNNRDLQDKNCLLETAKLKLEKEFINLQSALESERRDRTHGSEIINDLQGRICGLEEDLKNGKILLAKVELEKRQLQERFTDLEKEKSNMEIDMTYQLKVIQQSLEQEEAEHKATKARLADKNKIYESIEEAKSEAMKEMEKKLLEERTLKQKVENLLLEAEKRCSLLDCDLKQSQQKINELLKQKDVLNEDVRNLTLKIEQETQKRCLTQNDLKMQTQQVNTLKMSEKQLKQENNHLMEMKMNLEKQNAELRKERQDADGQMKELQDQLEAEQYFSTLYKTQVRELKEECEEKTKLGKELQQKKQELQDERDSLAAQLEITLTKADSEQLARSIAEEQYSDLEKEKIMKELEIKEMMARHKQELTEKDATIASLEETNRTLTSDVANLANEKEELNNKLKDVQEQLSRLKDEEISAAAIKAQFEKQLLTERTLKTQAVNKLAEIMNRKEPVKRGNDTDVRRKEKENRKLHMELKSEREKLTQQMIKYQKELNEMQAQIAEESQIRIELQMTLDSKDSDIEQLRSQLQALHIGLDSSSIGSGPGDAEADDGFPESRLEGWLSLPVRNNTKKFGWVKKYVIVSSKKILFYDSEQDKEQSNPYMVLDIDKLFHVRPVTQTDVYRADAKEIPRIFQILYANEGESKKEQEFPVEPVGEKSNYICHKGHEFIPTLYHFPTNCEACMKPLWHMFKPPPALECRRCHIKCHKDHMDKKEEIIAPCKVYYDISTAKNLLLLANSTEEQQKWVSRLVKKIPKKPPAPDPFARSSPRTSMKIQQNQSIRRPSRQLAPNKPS
Summary of the method: as §1

PKC ε = target: T3, PKC ε (Homo sapiens, UniProt Q02156)
T3 construct: gene PRKCE
T3 sequence (Q02156 1-737): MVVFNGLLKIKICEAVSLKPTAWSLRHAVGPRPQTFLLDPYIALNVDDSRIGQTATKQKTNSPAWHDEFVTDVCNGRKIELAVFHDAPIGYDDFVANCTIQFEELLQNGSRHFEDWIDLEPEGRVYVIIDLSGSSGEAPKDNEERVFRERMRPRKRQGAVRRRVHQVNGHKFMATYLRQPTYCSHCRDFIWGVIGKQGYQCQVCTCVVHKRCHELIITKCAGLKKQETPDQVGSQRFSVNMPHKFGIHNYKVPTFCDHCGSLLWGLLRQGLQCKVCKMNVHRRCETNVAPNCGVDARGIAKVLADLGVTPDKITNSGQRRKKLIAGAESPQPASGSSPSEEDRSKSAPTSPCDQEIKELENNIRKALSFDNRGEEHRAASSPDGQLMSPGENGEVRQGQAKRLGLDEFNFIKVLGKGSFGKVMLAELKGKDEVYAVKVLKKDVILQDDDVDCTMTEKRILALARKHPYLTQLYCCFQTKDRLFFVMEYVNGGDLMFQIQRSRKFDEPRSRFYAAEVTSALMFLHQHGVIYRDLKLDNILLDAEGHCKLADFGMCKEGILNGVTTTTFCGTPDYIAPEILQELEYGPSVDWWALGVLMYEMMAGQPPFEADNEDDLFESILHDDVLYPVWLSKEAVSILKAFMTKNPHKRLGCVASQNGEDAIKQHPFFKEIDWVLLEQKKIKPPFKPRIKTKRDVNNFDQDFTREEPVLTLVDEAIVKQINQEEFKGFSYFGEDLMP
Summary of the method: as §1

BTK = BTK (Homo sapiens, UniProt Q06187)
Sequence of BTK (Q06187 whole entry): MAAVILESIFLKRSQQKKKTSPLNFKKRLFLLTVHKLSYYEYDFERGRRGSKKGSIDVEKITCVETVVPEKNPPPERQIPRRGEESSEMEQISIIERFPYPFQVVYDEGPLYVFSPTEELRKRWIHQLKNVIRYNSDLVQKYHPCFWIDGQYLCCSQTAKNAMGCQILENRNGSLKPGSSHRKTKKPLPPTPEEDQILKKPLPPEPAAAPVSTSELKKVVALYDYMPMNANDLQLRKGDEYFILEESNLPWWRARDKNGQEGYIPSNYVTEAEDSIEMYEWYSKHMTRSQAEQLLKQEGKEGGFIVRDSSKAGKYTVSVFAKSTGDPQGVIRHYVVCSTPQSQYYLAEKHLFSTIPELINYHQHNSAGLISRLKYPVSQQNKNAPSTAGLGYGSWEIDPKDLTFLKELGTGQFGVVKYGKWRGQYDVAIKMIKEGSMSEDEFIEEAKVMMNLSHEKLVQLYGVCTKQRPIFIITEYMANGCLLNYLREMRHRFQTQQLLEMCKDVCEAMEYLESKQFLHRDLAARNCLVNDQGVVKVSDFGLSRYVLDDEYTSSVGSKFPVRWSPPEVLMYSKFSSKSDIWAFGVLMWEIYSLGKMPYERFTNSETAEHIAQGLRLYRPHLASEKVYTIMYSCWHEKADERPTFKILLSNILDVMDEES
Summary of the method: as §1

[1] = read-out: Kinome Profiling performed by Eurofins DiscoverX / AM-1882, 1.0 µM / POC
[2] = read-out: Kinome Profiling performed by Eurofins DiscoverX / AM-0277, 1.0 µM / POC
[3] = read-out: Kinome Profiling performed by Eurofins DiscoverX / AM-5308, 1.0 µM / POC

For `CC(C)(C)NS(=O)(=O)c1cccc(NC(=O)c2ccc(S(=O)(=O)NC(C)(C)C)cc2N2CCC3(CC2)CC3)c1` [AM-1882], the remaining activity at 1 µM (IRAK 4; [1]) was 80%, the remaining activity at 1 µM (SRC; [1]) was 98% and the remaining activity at 1 µM (ROCK 2; [1]) was 77%. For the same molecule, the remaining activity at 1 µM (PKC ε; [1]) was 93% and the remaining activity at 1 µM (BTK; [1]) was 100%.

In the case of `CC(C)(CO)Nc1ccc(C(=O)Nc2cccc(S(=O)(=O)C3CCCC3)c2)c(N2CCC3(CC2)CC3)n1` [AM-0277], the remaining activity at 1 µM (IRAK 4; [2]) is reported as 100%, the remaining activity at 1 µM (SRC; [2]) is reported as 89% and the remaining activity at 1 µM (ROCK 2; [2]) is reported as 100%. It also gave a remaining activity at 1 µM (PKC ε; [2]) of 100% and a remaining activity at 1 µM (BTK; [2]) of 100%.

For `C[C@@H]1CN(c2cccc(NC(=O)c3ccc(NS(=O)(=O)CCO)cc3N3CCC4(CC3)CC4)n2)CCO1` [AM-5308], the remaining activity at 1 µM (IRAK 4; [3]) was 95.5%, the remaining activity at 1 µM (SRC; [3]) was 96.5% and the remaining activity at 1 µM (ROCK 2; [3]) was 97.5%. For the same molecule, the remaining activity at 1 µM (PKC ε; [3]) was 97.5% and the remaining activity at 1 µM (BTK; [3]) was 98.5%.
